Here are results for 93 compounds from PubChem BioAssay AID463074 (Broad Institute, 2010).

Active and inactive are the calls of the source.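 Rule for the calls: active = AC50 no more than tenfold above the top dose tested, or full inhibition at every dose with a flat fit (cut at about 19 µM in these data); inconclusive = flat curve fit with inhibition between 30% and 70%, or poor fit; inactive = AC50 more than tenfold above the top dose tested.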

The test system of the assay is HMLE_sh_eGFP viability, CellTiter-Glo luminescence, 72 h. Description: viability loss of HMLE_sh_eGFP cells – cell-based, luminescence, counter-screen for HMLE_sh_ECad selective toxicity project, dose response (AID 463074).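 Note: counterscreen control line to flag general toxicity for the HMLE_sh_ECad screen; potency for loss of viability as luminescence drops below DMSO wells.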
Consider `CC(Cc1ccccc1)NCCC(c1ccccc1)c1ccccc1` (stereo not drawn), for which the AC50 was 8.73 µM. Then `Cc1ccc(/C=N/Nc2cc(C)nc(NCc3ccccc3)n2)cc1`, with 7.16 µM; and `CC(C)Cn1c(O)c(N=NC(=O)c2cccc(S(=O)(=O)N3CCCCC3)c2)c2ccccc21`, with 1.57 µM.

With `CC(C)c1ccc(N2C(=O)NC(=O)/C(=C/C=C/c3ccco3)C2=O)cc1`, the AC50 is 2.29 µM. Then `CC(=O)c1ccc(N2CCC(c3cc(-c4ccc(Cl)cc4)n[nH]3)CC2)c([N+](=O)[O-])c1`, with 3.62 µM; and `O=C(NC(=S)Nc1cccc(Cl)c1N1CCCCC1)c1cccs1`, with 6.92 µM. Then `O=C(NCc1nc(-c2ccc(C(F)(F)F)cc2)no1)Nc1cc(Cl)cc(Cl)c1`, with 2.46 µM.

`CNc1oc(-c2ccc(Cl)cc2)nc1P(=O)(c1ccccc1)c1ccccc1`: the AC50 is 9.43 µM.

On to `Cc1nc2ccc(Br)cn2c1C(=O)N/N=C\c1ccc(C(C)C)cc1`, for which the concentration at half-maximal activity (AC50) was 4.34 µM.

For the compound `COc1cc(CNC(C)c2ccccc2)cc(Br)c1OCc1ccccc1` (stereo not drawn), the AC50 is 6.75 µM.

Take `O=C(CN1CCCCCC1)Nc1ccccc1Oc1ccccc1`: the AC50 was 0.808 µM.

As for `O=C1NC(=Nc2ccc(Cl)cc2)SC1Cc1cccc(Cl)c1Cl` (stereo not drawn), the AC50 was > 19.5 µM (inactive). For `CCCN1C/C(=C/c2ccc3c(c2)OCO3)C(=O)/C(=C/c2ccc3c(c2)OCO3)C1` the value was 1.12 µM; for `COc1ccc(-c2cn(CCc3c[nH]c4ccccc34)nn2)cc1`, 2.69 µM. For `O=C(Nc1cccc(-c2csc(-c3ccccc3)n2)c1)c1cccs1` the value was 5.22 µM; for `CCOC(=O)c1cnc(-n2nc(C)cc2C)nc1NNc1cc(C)nc(-c2ccccc2)n1`, 2.97 µM; for `CC(C)(Sc1ccc(CCN(CCCCC2CCCCC2)C(=O)NC2CCCCC2)cc1)C(=O)O`, 5.57 µM. As to `CCC1CCCCN1S(=O)(=O)c1ccc(S(=O)(=O)N(Cc2ccccn2)CC2CCCO2)cc1` (stereo not drawn), the AC50 is 2.49 µM. Turning to `CN(C)S(=O)(=O)Oc1cccc(C(=O)Nc2ccc(Cl)c(Cl)c2)c1`, the AC50 is 6.22 µM. For `CCOCCCNC(=O)/C(C#N)=C/c1ccc([N+](=O)[O-])o1` the value was 8.21 µM; for `COc1cc(N=Nc2ccc3ccccc3c2)ccc1O`, 6.43 µM. Then `Cc1cc(C)c(C(=O)/C=C/c2ccc(C(C)C)cc2)c(=O)[nH]1`, with 10.1 µM.

`O=C(Nc1cccc(S(=O)(=O)N2CCCCC2)c1)c1ccc([N+](=O)[O-])o1`: the AC50 was 3.83 µM. `FC(F)(F)c1ccc(C2[C@H]3CN(Cc4cccnc4)[C@H](c4ccccc4)C34CC2(c2cccnc2)C4)cc1` (stereo partly drawn): the AC50 is 3.67 µM. For `Cc1nc2sccn2c(=O)c1CCN1CCC(=C(c2ccc(F)cc2)c2ccc(F)cc2)CC1` the value was 5.23 µM.

For `CC1=NN(c2ccccc2)C(=O)/C1=C\C=C\c1ccccc1`, the AC50 is 3.55 µM.

In the case of `COC(=O)c1sc(-c2ccc(C(C)(C)C)cc2)cc1NC(=O)/C=C/C(=O)O`, the AC50 is 4.28 µM. Turning to `O=C(CCc1ccc(Oc2cc([N+](=O)[O-])cc([N+](=O)[O-])c2)cc1)N1CCCCCC1`, the concentration at half-maximal activity (AC50) was 8.85 µM. For `CC(C)(C)N(Cc1ccccc1)C(=O)c1cc2ccccc2o1` the value was 0.653 µM; for `COc1ccc(C2=NN(C(=O)COC(=O)c3ccc(S(C)(=O)=O)c([N+](=O)[O-])c3)C(c3ccco3)C2)cc1` (stereo not drawn), 3.84 µM. As to `COc1ccc(C(=O)c2ccc(OC)cc2OC)cc1`, the AC50 is 5.49 µM. Consider `Cc1cc(C)nc(NC(=O)/C=C/c2ccc3c(c2)OCO3)c1`, for which the AC50 is 2.8 µM. Then `O=C(CCc1ccccc1)Nc1sc2c(c1C(=O)O)CCCC2`, with > 19.5 µM (inactive). Then `CC(C)(C)c1ccc(Oc2ccc(N)cc2)cc1`, with 13.5 µM; and `COc1ccc(N/N=C(/C(C)=O)N2CCCc3ccccc32)cc1`, with 13.2 µM; and `CNC(=O)NC(=O)C(C)OC(=O)c1c2c(nc3ccccc13)/C(=C/c1cccs1)CC2` (stereo not drawn), with 4.01 µM. For `CCOC(=O)c1cnc2ccc(OCC)cc2c1NCc1ccccc1OC` the value was 4.7 µM.

`Cc1cccc(-n2ncc3c(N4CCCc5ccccc54)ncnc32)c1`: the AC50 is 7.68 µM. Then `O=S(=O)(c1ccc2ccccc2c1)N1CCN(c2ccc(O)cc2)CC1`, with 8.59 µM.

As to `COc1cc(/C=C/C(=O)c2ccc3c(c2)OCO3)cc(Cl)c1O`, the AC50 is 10.8 µM. Consider `COc1cccc(/C=N/Nc2ncnc(Cl)c2N)c1O`, for which the AC50 is 3.29 µM. With `C/C(=N\NC(N)=S)c1cc(-c2ccccc2)c(-c2ccccc2)s1`, the AC50 is 3.94 µM.

For `CN1CCN(C2=Cc3cc(Cl)ccc3Sc3cc(F)ccc32)CC1`, the AC50 is 7.29 µM. Then `COc1ccc(Cc2nnc(N/N=C/c3ccccc3O)[nH]c2=O)cc1OC`, with 3.4 µM; and `CSc1ccccc1C(=O)Nc1cc(C)ccc1C`, with > 19.5 µM (inactive); and `CCN(c1ccccc1)S(=O)(=O)c1cccc(C(=O)NCC(c2cccs2)N2CCOCC2)c1` (stereo not drawn), with > 19.5 µM (inactive).

In the case of `C=C(C(=O)c1ccccc1)C(CC(=O)c1ccccc1)c1ccccc1` (stereo not drawn), the AC50 is 3.6 µM. For `O=C(/C=C/Sc1ccccc1)c1ccc(Cl)cc1` the value was 4.56 µM; for `C=C(C)[C@@H]1CC[C@]2(C(=O)O)CC[C@]3(C)C(CCC4[C@@]5(C)CC[C@H](O)C(C)(C)C5CC[C@]43C)C12` (stereo partly drawn), 5.71 µM; for `Cc1c(CCOC(=O)C2C3CC4CC(C3)CC2C4)sc[n+]1CC(=O)c1ccc(Br)cc1` (stereo not drawn), 2.44 µM. As to `Cc1cccc(NC(=O)CCC(=O)N/N=C/c2ccc(O)cc2O)c1`, the AC50 was 10.6 µM. For `CCCCCCOc1ccc(OC(=O)c2cccnc2)cc1` the value was 10.1 µM; for `CCOc1cc(CNc2ccc(Br)cc2)cc(Br)c1OCC(=O)NC(C)(C)C`, 6.32 µM. Then `COC(=O)c1cc(=O)n(Cc2cccs2)c(=Nc2ccccc2)s1`, with 4.57 µM; and `O=C(/C=C/c1ccc(F)cc1)c1cc(Br)ccc1O`, with 14.1 µM; and `O=C(CCC(=O)N1CCN(c2ccc(O)cc2)CC1)c1ccc(Br)cc1`, with 2.64 µM. Then `Cc1cc(=O)[nH]c(N/N=C/c2ccccn2)n1`, with 1.53 µM. `O=C(CSc1nc2nc(-c3cccs3)cc(C(F)(F)F)c2c(=O)[nH]1)Nc1c(F)c(F)c(F)c(F)c1F`: the AC50 is 3.43 µM.

Consider `Cc1cc(Nc2cccc(F)c2)nc(-c2ccccc2O)n1`, for which the AC50 is 6.41 µM. Then `O=C(c1ccc(OCCN2CCCCC2)cc1)c1c(-c2ccc(O)cc2)sc2cc(O)ccc12`, with 2.35 µM. Then `Oc1ccc(Br)cc1-c1cc(-c2ccccc2)n[nH]1`, with 6.31 µM; and `Cc1cc(Nc2nc(Cl)c(Cl)cc2Cl)n(-c2ccccc2)n1`, with 11.3 µM; and `CN(CC(=O)Nc1ccc(Cl)c(Cl)c1)C(=O)C12CC3CC(CC(C3)C1)C2`, with 6.2 µM. For `CCN1CCN(Cc2ccc(NC(=O)c3cc(NC(=O)c4cnn(-c5ccccc5)c4N)cc(OC)c3)cc2C(F)(F)F)CC1` the value was 6.76 µM.

As for `CCOC(=O)C(=Cc1ccc(-n2ccnc2)cc1)C(=O)OCC`, the half-maximal activity concentration (AC50) is 7.68 µM. In the case of `O=[N+]([O-])c1ccccc1-c1ccc(C(=S)N2CCN(c3ccccc3)CC2)o1`, the AC50 was > 19.5 µM (inactive). For `CCCCOc1ccc(C(=O)Nc2ccc3c(c2)OCO3)cc1` the value was 3.66 µM; for `CCCCCCSc1cc(-c2nc3ccc(C)cn3c2NCCCC)ccc1OC`, 6.6 µM; for `Cc1cc(C(=O)NNc2ccc(F)cc2)no1`, 1.68 µM.

For the compound `N#C/C(=C/c1ccc(O)c(O)c1)C(=O)NCc1ccc(Cl)cc1`, the AC50 is 13.7 µM. Take `O=S(=O)(c1ccccc1)N(CC(O)Cn1c2ccccc2c2ccccc21)c1ccccc1` (stereo not drawn): the AC50 was 6.55 µM. With `Cc1ccc(C)c(OCCCCN2CCNCC2)c1C`, the AC50 is 6.15 µM.

As to `CCc1ccccc1Nc1nn2c(=O)c3ccc(C(=O)NCc4ccccn4)cc3nc2s1`, the AC50 is less than 0.16 µM. For `Cc1ccc(-c2nc(CS(=O)CC(=O)NCc3ccc4c(c3)OCO4)c(C)o2)cc1` (stereo not drawn) the value was > 19.5 µM (inactive). For `COc1ccc(Cn2c3ccc(OC)cc3c3nc4ccccc4nc32)cc1` the value was 17.8 µM; for `CC1(C)CC[C@]2(CO)CC[C@]3(C)C(=CCC4[C@@]5(C)CC[C@H](O)[C@@](C)(CO)C5CC[C@]43C)[C@@H]2C1` (stereo partly drawn), 3.97 µM; for `Cc1ccc(S(=O)(=O)N2CCCCC2)cc1NC(=O)Cn1ncc(Cl)c(Cl)c1=O`, 2.44 µM.

On to `CCCCCC(=O)Nc1nc(C)c(-c2csc(Nc3cc(OC)ccc3OC)n2)s1`, for which the AC50 was 2.11 µM.

As to `COc1ccc2sc(-c3ccc(SC)cc3)c(C#CCO)c2c1`, the AC50 is 8.45 µM.

Regarding `Cc1ccc(NC(=S)N/N=C/c2c(Cl)cccc2Cl)c(C)c1`, the AC50 is 0.369 µM. For `CCSc1nnc(-c2sc3nnc(-c4ccccc4)c(-c4ccccc4)c3c2N)o1` the value was 0.539 µM. With `CCOC(=O)C(=NCCCN1CCOCC1)NNc1cccc(C(F)(F)F)c1`, the AC50 is 9.13 µM. On to `Cc1ccc(Cl)cc1N1CCN(CC(=O)NC2CCCc3ccccc32)CC1` (stereo not drawn), for which the AC50 is 6.66 µM.

Consider `O=C(Nc1ccc2c(c1)OCO2)c1ccc(COc2ccc3c(c2)CCC3)o1`, for which the AC50 was 6.25 µM.

Consider `CCOc1ccccc1N(C(=O)Nc1ccc(Cl)cc1)C1=NCCS1`, for which the AC50 was > 19.5 µM (inactive). For `CCOC(=O)/C(=C\c1ccc([N+](=O)[O-])cc1)C(=O)c1cc(C(C)=O)c(Nc2ccccc2)s1` the value was 1.07 µM; for `C[C@@H]1O[C@@H](O[C@H]2C[C@@H](O)[C@]3(CO)[C@@H]4C(CC[C@]3(O)C2)[C@@]2(O)CC[C@H](C3COC(=O)C3)[C@@]2(C)C[C@H]4O)[C@H](O)[C@H](O)[C@H]1O` (stereo partly drawn), 0.707 µM; for `O=C(C#Cc1ccccc1)Nc1cccc(F)c1`, 3.43 µM.

Take `CC(C)(C)c1ccc(Cn2nnc3c(=O)[nH]c(C4CCCN(C(=O)c5cccs5)C4)nc32)cc1` (stereo not drawn): the AC50 is 14.6 µM.

Regarding `O=C(Nc1cc(S(=O)(=O)Nc2ccc(Cl)cc2)ccc1N1CCCCC1)c1ccc(F)cc1`, the AC50 is 8.97 µM. With `CN(C)CCNC(=O)c1sc2nc(-c3ccccc3)cc(C(F)(F)F)c2c1N`, the AC50 was 5.23 µM.

Turning to `CCC1CSC(Nc2ccc(C(=O)/C=C/c3cccc(C)c3)cc2)=N1` (stereo not drawn), the AC50 is 5.56 µM. For `Clc1ccccc1Cn1c(/C=C/c2ccco2)nc2ccccc21` the value was 2.19 µM.
